# Like-named read-outs stand apart in the source and are kept apart here.
# Tests used:
# [1] = test system: pRb T821 in COV318 cells; assay: Western blot pRb; type: cell-based, human; conditions: 30-1000 nM, 24 hours
# Method: Cells were plated at 300,000 cells/well in Corning 6 cm tissue culture treated plates. […] Cells were collected by washing each well twice with cold PBS, then scraping cells in the presence of 75 μL cold RIPA with protease and phosphatase inhibitors. Lysates were clarified by centrifugation at 12,000×g for 15 min at 4° C. and supernatants transferred to clean tubes. A BCA assay was performed to determine the protein concentration of each lysate. […] Protein was transferred to a nitrocellulose membrane and blocked with LI-COR blocking buffer for 1 hour. Membranes were incubated overnight in primary antibody at 4° C. Following 3 washes with TBS-T, membranes were incubated for 60 minutes in LI-COR secondary antibodies. Following 3 washes in TBS-T, and one TBS wash, membranes were scanned using a LI-COR OdysseyCLx. Image studio was used for image analysis.
# [2] = test system: caspase 3/7 in H526 cells; assay: CaspaseGlo-3/7 activation; type: cell-based, human
# Method: (§1) Plates were removed from incubator and treated with CaspaseGlo-3/7 (Promega, Inc) following manufacturer specifications. Plates were then read on a Biotech luminometer with 1 sec/well integration. Results were converted to Microsoft Excel and transferred to GraphPad Prism for Analysis (FIG. 22D).
# as §1, with “from the” for “from”, “incubator at each specified timepoint” for “incubator”, “on” for “on a”, “27A-C).” for “22D).”
# [3] = molecular target: T1, CYP1A2 (Homo sapiens, UniProt P05177); assay: CYP inhibition in human liver microsomes; type: in vitro ADME
# T1 construct: human liver microsomes were incubated in the appropriate isoform-specific probe substrate; from tissue; host or cells: human liver microsomes
# T1 sequence (P05177 whole entry, canonical isoform): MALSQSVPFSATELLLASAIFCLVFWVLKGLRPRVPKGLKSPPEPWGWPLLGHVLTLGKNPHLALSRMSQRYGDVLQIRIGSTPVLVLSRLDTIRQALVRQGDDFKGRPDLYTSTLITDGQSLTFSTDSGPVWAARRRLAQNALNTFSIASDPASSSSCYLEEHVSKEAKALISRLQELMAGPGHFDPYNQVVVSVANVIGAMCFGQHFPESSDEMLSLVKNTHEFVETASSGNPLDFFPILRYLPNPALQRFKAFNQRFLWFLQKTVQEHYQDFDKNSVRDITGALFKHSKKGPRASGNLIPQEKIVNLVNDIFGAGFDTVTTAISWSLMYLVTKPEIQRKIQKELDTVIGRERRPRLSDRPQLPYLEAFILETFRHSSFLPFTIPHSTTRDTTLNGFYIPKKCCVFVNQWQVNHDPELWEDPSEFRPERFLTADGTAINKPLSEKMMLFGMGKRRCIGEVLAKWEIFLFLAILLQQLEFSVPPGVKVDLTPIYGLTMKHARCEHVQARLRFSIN
# Method: (§2) The final DMSO content in the reaction mixtures was ≤0.2%. A selective inhibitor of each isoform was also screened as a positive control. Incubations were terminated by the addition of methanol. The quenched samples were incubated at 4° C. for 10 minutes and filtered by centrifugation for 1 minute at 500 rcf. The supernatants were removed, and the probe substrate metabolites were analyzed by LC-MS/MS.
# (§3) The LC-MS/MS system consisted of an AB Sciex API5500 mass spectrometer coupled with an Agilent 1290 liquid chromatography system and an Agilent 1290 Infinity HTS chilled autosampler, controlled through Analyst software (AB Sciex). Samples were analyzed using the following solvent system and gradient: Acquity™ C18 Reverse Phase UPLC HSS T3 (1.8 μm) 2.1×50 mm column; 50° C. Column Temp.; 10 μL Injection Vol.; Mobile Phase A: Water+0.1% Formic Acid; Mobile Phase B: Acetonitrile+0.1% Formic Acid; Flow Rate: 0.6 mL/min.
# [4] = molecular target: T2, CYP2B6 (Homo sapiens, UniProt P20813); assay: CYP inhibition in human liver microsomes; type: in vitro ADME
# T2 construct: human liver microsomes were incubated in the appropriate isoform-specific probe substrate; from tissue; host or cells: human liver microsomes
# T2 sequence (P20813 whole entry, canonical isoform): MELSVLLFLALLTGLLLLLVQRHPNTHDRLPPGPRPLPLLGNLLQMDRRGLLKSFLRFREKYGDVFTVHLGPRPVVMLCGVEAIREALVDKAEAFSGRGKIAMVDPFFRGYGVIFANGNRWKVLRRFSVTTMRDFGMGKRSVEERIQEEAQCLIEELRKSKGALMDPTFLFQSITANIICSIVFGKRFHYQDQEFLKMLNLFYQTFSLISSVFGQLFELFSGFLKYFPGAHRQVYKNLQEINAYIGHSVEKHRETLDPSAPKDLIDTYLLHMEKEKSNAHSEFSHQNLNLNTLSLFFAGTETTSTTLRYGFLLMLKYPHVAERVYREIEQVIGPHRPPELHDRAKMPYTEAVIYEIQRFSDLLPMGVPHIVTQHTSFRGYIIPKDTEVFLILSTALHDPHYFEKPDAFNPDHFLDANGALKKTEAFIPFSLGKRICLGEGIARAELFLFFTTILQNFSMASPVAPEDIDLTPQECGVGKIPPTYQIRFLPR
# Method: as §2, §3
# [5] = molecular target: T3, CYP2C19 (Homo sapiens, UniProt P33261); assay: CYP inhibition in human liver microsomes; type: in vitro ADME
# T3 construct: human liver microsomes were incubated in the appropriate isoform-specific probe substrate; from tissue; host or cells: human liver microsomes
# T3 sequence (P33261 whole entry, canonical isoform): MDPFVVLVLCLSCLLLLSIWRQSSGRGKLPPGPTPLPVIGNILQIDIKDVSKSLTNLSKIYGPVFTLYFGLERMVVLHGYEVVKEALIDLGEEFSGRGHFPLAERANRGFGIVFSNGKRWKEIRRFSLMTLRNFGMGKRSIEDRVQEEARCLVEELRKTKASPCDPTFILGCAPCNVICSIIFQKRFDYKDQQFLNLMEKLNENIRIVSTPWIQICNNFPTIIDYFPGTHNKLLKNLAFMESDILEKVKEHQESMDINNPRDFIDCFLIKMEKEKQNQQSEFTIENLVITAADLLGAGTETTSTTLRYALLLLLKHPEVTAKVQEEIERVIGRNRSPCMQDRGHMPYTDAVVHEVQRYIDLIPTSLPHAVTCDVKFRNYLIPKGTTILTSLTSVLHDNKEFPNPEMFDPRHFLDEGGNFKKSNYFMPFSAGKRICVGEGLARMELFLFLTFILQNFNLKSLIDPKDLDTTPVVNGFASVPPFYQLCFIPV
# Method: as §2, §3
# [6] = molecular target: T4, CYP2C8 (Homo sapiens, UniProt P10632); assay: CYP inhibition in human liver microsomes; type: in vitro ADME
# T4 construct: human liver microsomes were incubated in the appropriate isoform-specific probe substrate; from tissue; host or cells: human liver microsomes
# T4 sequence (P10632 whole entry, canonical isoform): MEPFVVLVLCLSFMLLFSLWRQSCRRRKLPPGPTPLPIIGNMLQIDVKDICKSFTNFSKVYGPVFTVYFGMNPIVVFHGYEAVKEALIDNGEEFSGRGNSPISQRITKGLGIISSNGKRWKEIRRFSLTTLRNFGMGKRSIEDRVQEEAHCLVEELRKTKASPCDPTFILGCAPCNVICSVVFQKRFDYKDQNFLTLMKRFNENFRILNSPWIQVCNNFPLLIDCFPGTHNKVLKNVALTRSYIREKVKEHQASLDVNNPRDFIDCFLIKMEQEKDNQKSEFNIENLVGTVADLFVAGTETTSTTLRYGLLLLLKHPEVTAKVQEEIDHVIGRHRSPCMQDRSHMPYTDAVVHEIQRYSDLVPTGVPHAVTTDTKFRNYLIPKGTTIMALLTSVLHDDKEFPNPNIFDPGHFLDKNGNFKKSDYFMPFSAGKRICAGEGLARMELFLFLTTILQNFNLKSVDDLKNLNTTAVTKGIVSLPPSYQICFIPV
# Method: as §2, §3
# [7] = molecular target: T5, CYP2C9 (Homo sapiens, UniProt P11712); assay: CYP inhibition in human liver microsomes; type: in vitro ADME
# T5 construct: human liver microsomes were incubated in the appropriate isoform-specific probe substrate; from tissue; host or cells: human liver microsomes
# T5 sequence (P11712 whole entry, canonical isoform): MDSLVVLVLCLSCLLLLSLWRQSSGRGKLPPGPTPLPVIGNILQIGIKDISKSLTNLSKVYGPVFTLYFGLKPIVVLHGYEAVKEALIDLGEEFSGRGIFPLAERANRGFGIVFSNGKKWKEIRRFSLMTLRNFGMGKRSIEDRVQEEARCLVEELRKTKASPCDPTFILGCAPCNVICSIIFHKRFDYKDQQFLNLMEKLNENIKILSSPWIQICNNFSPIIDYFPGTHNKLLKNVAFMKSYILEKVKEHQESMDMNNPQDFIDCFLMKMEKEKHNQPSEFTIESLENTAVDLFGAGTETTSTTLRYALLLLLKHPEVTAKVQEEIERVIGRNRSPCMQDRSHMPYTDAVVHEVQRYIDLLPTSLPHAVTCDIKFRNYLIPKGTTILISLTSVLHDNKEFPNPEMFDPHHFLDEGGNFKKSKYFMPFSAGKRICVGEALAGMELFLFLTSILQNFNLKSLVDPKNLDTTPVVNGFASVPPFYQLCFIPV
# Method: as §2, §3
# [8] = molecular target: T6, CYP2D6 (Homo sapiens, UniProt P10635); assay: CYP inhibition in human liver microsomes; type: in vitro ADME
# T6 construct: human liver microsomes were incubated in the appropriate isoform-specific probe substrate; from tissue; host or cells: human liver microsomes
# T6 sequence (P10635 whole entry, canonical isoform): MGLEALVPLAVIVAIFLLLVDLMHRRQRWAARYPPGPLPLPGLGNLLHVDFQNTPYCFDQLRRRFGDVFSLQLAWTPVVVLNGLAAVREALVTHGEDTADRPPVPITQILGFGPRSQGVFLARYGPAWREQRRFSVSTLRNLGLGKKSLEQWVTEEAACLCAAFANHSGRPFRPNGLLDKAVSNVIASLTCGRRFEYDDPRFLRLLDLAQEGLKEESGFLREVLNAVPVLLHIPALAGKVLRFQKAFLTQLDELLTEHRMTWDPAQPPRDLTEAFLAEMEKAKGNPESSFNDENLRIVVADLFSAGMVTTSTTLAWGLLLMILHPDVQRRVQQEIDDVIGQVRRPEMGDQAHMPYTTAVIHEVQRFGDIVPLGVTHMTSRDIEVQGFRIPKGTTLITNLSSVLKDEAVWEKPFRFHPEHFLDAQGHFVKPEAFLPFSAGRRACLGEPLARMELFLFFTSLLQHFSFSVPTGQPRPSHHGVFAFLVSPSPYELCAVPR
# Method: as §2, §3
# [9] = molecular target: T7, CYP3A4 (midazolam as substrate) (Homo sapiens, UniProt P08684); assay: CYP inhibition in human liver microsomes; type: in vitro ADME
# T7 construct: human liver microsomes were incubated in the appropriate isoform-specific probe substrate; from tissue; host or cells: human liver microsomes
# T7 sequence (P08684 whole entry, canonical isoform): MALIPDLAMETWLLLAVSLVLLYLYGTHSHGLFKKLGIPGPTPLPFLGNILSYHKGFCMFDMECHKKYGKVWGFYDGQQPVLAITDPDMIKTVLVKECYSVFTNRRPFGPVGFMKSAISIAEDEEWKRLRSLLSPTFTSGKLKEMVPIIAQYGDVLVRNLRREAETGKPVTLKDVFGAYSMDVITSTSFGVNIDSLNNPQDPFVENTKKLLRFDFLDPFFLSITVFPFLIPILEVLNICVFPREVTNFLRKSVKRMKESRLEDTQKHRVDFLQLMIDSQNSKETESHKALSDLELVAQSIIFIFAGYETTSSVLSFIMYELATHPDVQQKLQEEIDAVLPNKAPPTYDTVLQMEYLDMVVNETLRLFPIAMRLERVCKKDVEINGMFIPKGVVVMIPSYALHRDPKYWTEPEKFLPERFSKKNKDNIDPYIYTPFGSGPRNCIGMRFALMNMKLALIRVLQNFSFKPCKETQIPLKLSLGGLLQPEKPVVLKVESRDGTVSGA
# Method: as §2, §3
# [10] = molecular target: T8, CYP3A4 (testosterone as substrate) (Homo sapiens, UniProt P08684); assay: CYP inhibition in human liver microsomes; type: in vitro ADME
# T8 construct: human liver microsomes were incubated in the appropriate isoform-specific probe substrate; from tissue; host or cells: human liver microsomes
# T8 sequence (P08684 whole entry, canonical isoform): as above
# Method: as §2, §3
# [11] = molecular target: T9, human OAT1 (Homo sapiens, UniProt Q4U2R8); assay: SLC transporter inhibition in HEK293 cells; type: in vitro ADME
# T9 construct: expressed in transfected cells; host or cells: HEK293
# T9 sequence (Q4U2R8 whole entry): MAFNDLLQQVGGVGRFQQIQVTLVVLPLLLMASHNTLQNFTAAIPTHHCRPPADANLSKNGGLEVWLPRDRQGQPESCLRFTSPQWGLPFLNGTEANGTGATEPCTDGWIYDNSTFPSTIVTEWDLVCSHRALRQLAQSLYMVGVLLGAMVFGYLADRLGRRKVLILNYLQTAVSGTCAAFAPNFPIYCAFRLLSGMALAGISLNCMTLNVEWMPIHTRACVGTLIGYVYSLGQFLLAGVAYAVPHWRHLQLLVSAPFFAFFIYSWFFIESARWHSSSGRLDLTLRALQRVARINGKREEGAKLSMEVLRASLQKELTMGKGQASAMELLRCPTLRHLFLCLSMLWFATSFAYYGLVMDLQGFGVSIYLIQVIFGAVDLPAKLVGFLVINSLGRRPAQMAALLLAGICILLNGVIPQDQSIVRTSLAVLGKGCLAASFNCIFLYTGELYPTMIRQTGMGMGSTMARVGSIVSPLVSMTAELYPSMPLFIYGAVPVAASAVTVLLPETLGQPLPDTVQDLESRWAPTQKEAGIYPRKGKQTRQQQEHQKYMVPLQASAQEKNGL
# [12] = molecular target: T10, human OCT1 (Homo sapiens, UniProt O15245); assay: SLC transporter inhibition in HEK293 cells; type: in vitro ADME
# T10 construct: expressed in transfected cells; host or cells: HEK293
# T10 sequence (O15245 1-554): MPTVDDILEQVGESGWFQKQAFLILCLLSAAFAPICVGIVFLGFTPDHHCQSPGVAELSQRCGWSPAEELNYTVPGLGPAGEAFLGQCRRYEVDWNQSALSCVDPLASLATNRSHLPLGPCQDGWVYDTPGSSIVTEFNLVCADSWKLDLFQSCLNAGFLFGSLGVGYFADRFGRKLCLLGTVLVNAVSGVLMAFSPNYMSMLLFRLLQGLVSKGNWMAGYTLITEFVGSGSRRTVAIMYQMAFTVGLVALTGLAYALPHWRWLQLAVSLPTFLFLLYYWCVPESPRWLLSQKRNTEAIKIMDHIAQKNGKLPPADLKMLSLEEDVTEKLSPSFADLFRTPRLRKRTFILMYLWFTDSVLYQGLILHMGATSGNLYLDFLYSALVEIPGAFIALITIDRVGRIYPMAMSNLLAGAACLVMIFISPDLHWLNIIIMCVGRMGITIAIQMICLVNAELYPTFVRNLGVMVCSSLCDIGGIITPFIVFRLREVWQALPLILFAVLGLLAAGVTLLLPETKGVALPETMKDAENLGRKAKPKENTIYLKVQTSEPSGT
# [13] = molecular target: multidrug resistance mutation (MDR) 1 (Homo sapiens, UniProt P08183); assay: Transporter inhibition; type: in vitro ADME
# [14] = test system: SA-beta galactosidase in LYR and LYFR cells; assay: Senescence-associated beta-galactosidase staining; type: cell-based; conditions: with abemaciclib and/or fulvestrant, 5 days
# Method: Briefly, cells were plated at low density and treated with the agents described for 5 days. A senescence detection kit was used to stain for SA-beta galactosidase (FIG. 148A-148D).
smiles,measurement,setting,value
NS(=O)(=O)c1ccc(Nc2ncc3cc4n(c3n2)C2(CCCCC2)C(=O)NN4)cc1 [Compound I],pRb levels,[1],dose-dependent decrease in pRb levels
same,caspase 3/7 activation,[2]; 24 hours,no appreciable caspase 3/7 activation
same,IC50,[2]; 72 hours,0.129 µM
same,IC50,"[2]; Homo sapiens, NCI-H526, 48 h, 48 hours",0.181 µM
same,IC50,"[2]; Homo sapiens, NCI-H526, 72 h, 72 hours",0.116 µM
same,IC50,"[3]; CYP1A2, substrate Tacrine, human liver microsomes",> 25 µM
same,CYP1A2 inhibition,[3]; up to 25 μM,Marginal to no inhibition
same,IC50,"[4]; CYP2B6, substrate Bupropion, human liver microsomes",> 25 µM
same,CYP2B6 inhibition,[4]; up to 25 μM,Marginal to no inhibition
same,IC50,"[5]; pH 7.4, probe mephenytoin, CYP2C19, substrate Mephenytoin, human liver microsomes",25 µM
same,CYP2C19 inhibition,[5]; up to 25 μM,Marginal to no inhibition
same,IC50,"[6]; CYP2C8, substrate Amodiaquine, human liver microsomes",> 25 µM
same,CYP2C8 inhibition,[6]; up to 25 μM,Marginal to no inhibition
same,IC50,[7],14.9 µM
same,IC50,"[8]; CYP2D6, substrate Dextromethorphan, human liver microsomes",> 25 µM
same,CYP2D6 inhibition,[8]; up to 25 μM,Marginal to no inhibition
same,IC50,"[9]; CYP3A4, substrate Midazolam, human liver microsomes",24.3 µM
same,CYP3A4 inhibition (midazolam as substrate),[9]; up to 25 μM,Marginal to no inhibition
same,IC50,[10],9.59 µM
same,OAT1 inhibition,[11],did not inhibit
same,Maximum Percent inhibition,"[11]; OAT1, HEK293 cells",30%
same,Maximum Percent inhibition,"[12]; OCT1, HEK293 cells",89%
same,IC50,"[12]; OCT1, HEK293 cells, read-out: IC50",5.5 µM
same,IC50,[12]; read-out: OCT1 IC50,5.5 µM
same,MDR1 inhibition,[13],did not inhibit
same,beta galactosidase staining,[14],significantly increased beta galactosidase staining

# Source: patent publication US20250199015A1, “CYCLIN-DEPENDENT KINASE 2 INHIBITORS FOR MEDICAL TREATMENT” (INCYCLIX BIO, LLC, priority 2022, published 2025)
